Where two headings read alike, the source gives them in different places. Marks after values point to notes of the source that are not given here.
Legend:
Myzus persicae = details: spray on Chinese cabbage leaf-disks, 500 g/ha, after 6 days
Procedure: Chinese cabbage (Brassica pekinesis) leaf-disks infected with all instars of the green peach aphid (Myzus persicae), are sprayed with a preparation of the active ingredient at the desired concentration. After 6 days mortality in % is determined. 100% means that all aphids have been killed; 0% means that none of the aphids have been killed.

Phaedon cochleariae = details: spray on Chinese cabbage leaf-disks, 500 g/ha, after 7 days
Procedure: • Solvent: 78.0 parts by weight of acetone • 1.5 parts by weight of dimethylformamide • Emulsifier: 0.5 parts by weight of alkylaryl polyglycolether
Chinese cabbage (Brassica pekinesis) leaf-disks are sprayed with a preparation of the active ingredient of the desired concentration. Once dry, the leaf disks are infested with mustard beetle larvae (Phaedon cochleariae). After 7 days mortality in % is determined. 100% means that all beetle larvae have been killed and 0% means that none of the beetle larvae have been killed.

Boophilus microplus = Boophilus microplus test (injection); type: in vivo; details: injection into adult engorged female ticks, 20 μg/animal, after 7 days
Procedure: Boophilus microplus—Test Injection)
• Solvent: dimethyl sulfoxide
Five adult engorged female ticks (Boophilus microplus) are injected with 1 μl compound solution into the abdomen. Ticks are transferred into replica plates and incubated in a climate chamber for a period of time. Egg deposition of fertile eggs is monitored. […] 100% means that all eggs are infertile; 0% means that all eggs are fertile.

[1] = preparation examples, HPLC method ([a], [b] or [c]) not stated

## CNC(=O)C(C#N)=C(NC(C)C1CC1)c1cccnc1Cl (mixture of isomers) [Compound 1244]
Myzus persicae
  activity (mortality): 100%

## CCOC(=O)C(C#N)=C(NC(C)c1nccs1)c1ncc(C(F)(F)F)cc1Cl (racemic) [Compound 40]
Phaedon cochleariae
  activity (mortality): 83%
pH 2.7
  Log P: 3.37^[a]

## CCOC(=O)C(C#N)=C(NC(C)c1nccs1)c1cccnc1SC (racemic) [Compound 62]
Myzus persicae
  activity (mortality): 100%
pH 7.5
  Log P: 2.73

## CCOC(=O)C(C#N)=C(NC1CCCNC1=O)c1cccnc1Cl (racemic) [Compound 239]
Boophilus microplus
  activity (mortality; 100% means all eggs infertile): 100%
pH 2.3
  Log P: 1.67
pH 7.5
  Log P: 1.6

## CC(N/C(=C(/C#N)C(=O)O)c1sccc1Br)c1nccs1 (stereo not drawn) [(2Z)-3-(3-bromo-2-thienyl)-2-cyano-3-{[1-(1,3-thiazol-2-yl)ethyl]amino}acrylic acid]
[1]
  chromatographic logP: 1.23

## CSCC(C)NC(=C(C#N)C(=O)OC(C)C)c1cccnc1Cl (stereo not drawn) [Compound 597]
Myzus persicae
  activity (mortality): 90%
pH 7.5
  Log P: 3.03

## CCOC(=O)C(C#N)=C(NC(C)C(=O)NC)c1ncc(C(F)(F)F)cc1Cl (stereo not drawn) [Compound 600]
Myzus persicae
  activity (mortality): 100%
pH 2.7
  Log P: 2.41^[a]

## CC(C)NC(=O)C(C#N)=C(NC(C)C(C)C)c1cccnc1Cl (stereo not drawn) [Compound 957]
Phaedon cochleariae
  activity (mortality): 100%
pH 2.3
  Log P: 3.37
pH 7.5
  Log P: 3.39

## C#CC(C)(C)NC(=C(C#N)C(=O)OC)c1cccnc1Cl [Compound 1028]
Phaedon cochleariae
  activity (mortality): 83%
pH 2.7
  Log P: 2.23^[a]

## CCOC(=O)C(C#N)=C(NC(C)C(C)C)c1cccnc1-c1ccc(Cl)c(Cl)c1 (stereo not drawn) [Compound 1475]
Phaedon cochleariae
  activity (mortality): 100%
pH 2.3
  Log P: 4.56^[c]; 4.56^[b]
pH 7.5
  Log P: 4.56^[c]; 4.56^[b]

## CCOC(=O)C(C#N)=C(NC(C)C(C)C)c1cccnc1-c1cncnc1 (stereo not drawn) [Compound 1591]
Phaedon cochleariae
  activity (mortality): 100%
pH 7.5
  Log P: 2.42

## CCOC(=O)C(C#N)=C(Cl)c1scc(C)c1Cl [ethyl 3-chloro-3-(3-chloro-4-methyl-2-thienyl)-2-cyanoacrylate]
[1]
  chromatographic logP: 3.65
  LogP: 3.70

## CCOC(=O)/C(C#N)=C(\NCC(c1ccccc1)C(C)C)c1cccnc1Cl (stereo not drawn) [ethyl (2Z)-3-(2-chloropyridin-3-yl)-2-cyano-3-[(3-methyl-2-phenylbutyl)amino]acrylate]
[1]
  chromatographic logP: 4.21

## CCOC(=O)/C(C#N)=C(\NCCc1ncc(C(F)(F)F)cc1Cl)c1cccnc1Cl [ethyl (2Z)-3-(2-chloropyridin-3-yl)-3-({2-[3-chloro-5-(trifluoromethyl)pyridin-2-yl]ethyl}amino)-2-cyanoacrylate]
[1]
  chromatographic logP: 3.57

## CCOC(=O)/C(C#N)=C(\NC(C)c1ccc(Cl)nc1)c1cccnc1Cl (stereo not drawn) [ethyl (2Z)-3-(2-chloropyridin-3-yl)-3-{[1-(6-chloropyridin-3-yl)ethyl]amino}-2-cyanoacrylate]
[1]
  chromatographic logP: 2.8

## CCOC(=O)/C(C#N)=C(\N[C@H](C)C(=O)NC)c1scc(C)c1Cl [ethyl (2Z)-3-(3-chloro-4-methyl-2-thienyl)-2-cyano-3-{[(2R)-1-(methylamino)-1-oxopropan-2-yl]amino}acrylate]
[1]
  chromatographic logP: 3.61

## CCN/C(=C(/C#N)C(=O)OCC)c1cccnc1-c1ccc(Cl)cc1 [ethyl (2Z)-3-[2-(4-chlorophenyl)pyridin-3-yl]-2-cyano-3-(ethylamino)acrylate]
[1]
  chromatographic logP: 2.96

Reference: patent US8476197B2, “Aminopropenoates as fungicides” (priority 2009, dated 2013)
